Measurements as given in article PMC6757289, “Design and Characterization of SGK3-PROTAC1, an Isoform Specific SGK3 Kinase PROTAC Degrader” (ACS Chemical Biology, 2019).
Where two headings read alike, the source gives them in different places.

Legend:
Experiment in all cases: kinase profiling panel
Assay type in all cases: biochemical
Settings in all cases: read-out: % Activity Remaining
[1] = target: PKA (Homo sapiens, UniProt P17612)
From the text: (§1) Protein kinase profiling against a Dundee panel of 140 protein kinases was undertaken at the International Centre for Protein Kinase Profiling. The result for each kinase was presented as a mean kinase activity of the reaction taken in triplicate relative to a control sample treated with DMSO. Assay conditions and abbreviations are available at http://www.kinase-screen.mrc.ac.uk.

[2] = target: TrkA (Homo sapiens, UniProt P04629)
From the text: as §1

[3] = target: PAK4 (Homo sapiens, UniProt O96013)
From the text: as §1

[4] = target: T1, EPH-B1 (Homo sapiens, UniProt P54762)
T1 sequence (P54762 18-984): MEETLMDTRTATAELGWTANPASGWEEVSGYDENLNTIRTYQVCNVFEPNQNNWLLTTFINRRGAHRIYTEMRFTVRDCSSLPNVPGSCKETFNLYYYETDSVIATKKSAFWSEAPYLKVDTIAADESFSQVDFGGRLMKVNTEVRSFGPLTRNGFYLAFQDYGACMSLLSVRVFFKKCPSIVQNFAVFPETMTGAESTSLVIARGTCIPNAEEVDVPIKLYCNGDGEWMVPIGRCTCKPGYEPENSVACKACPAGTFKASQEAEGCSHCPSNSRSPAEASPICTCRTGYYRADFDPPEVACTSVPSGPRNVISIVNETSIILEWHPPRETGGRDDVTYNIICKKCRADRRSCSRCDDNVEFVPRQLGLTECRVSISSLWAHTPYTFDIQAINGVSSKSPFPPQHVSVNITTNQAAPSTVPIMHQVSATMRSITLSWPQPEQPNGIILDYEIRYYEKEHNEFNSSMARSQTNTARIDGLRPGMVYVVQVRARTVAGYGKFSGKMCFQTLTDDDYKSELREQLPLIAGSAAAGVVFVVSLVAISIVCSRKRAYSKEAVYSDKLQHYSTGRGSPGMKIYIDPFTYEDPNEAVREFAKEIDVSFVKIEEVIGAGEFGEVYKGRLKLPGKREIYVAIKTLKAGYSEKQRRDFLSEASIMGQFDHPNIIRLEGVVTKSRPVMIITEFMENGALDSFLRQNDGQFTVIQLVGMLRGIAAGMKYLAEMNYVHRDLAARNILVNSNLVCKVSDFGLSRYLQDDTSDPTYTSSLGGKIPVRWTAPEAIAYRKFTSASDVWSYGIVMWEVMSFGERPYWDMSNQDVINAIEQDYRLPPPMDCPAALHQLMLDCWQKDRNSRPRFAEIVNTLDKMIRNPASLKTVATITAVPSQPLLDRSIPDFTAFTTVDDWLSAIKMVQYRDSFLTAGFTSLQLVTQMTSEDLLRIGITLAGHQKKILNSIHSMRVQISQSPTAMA
From the text: as §1

[5] = target: T2, IKK epsilon (Homo sapiens, UniProt Q14164)
T2 sequence (Q14164 1-716): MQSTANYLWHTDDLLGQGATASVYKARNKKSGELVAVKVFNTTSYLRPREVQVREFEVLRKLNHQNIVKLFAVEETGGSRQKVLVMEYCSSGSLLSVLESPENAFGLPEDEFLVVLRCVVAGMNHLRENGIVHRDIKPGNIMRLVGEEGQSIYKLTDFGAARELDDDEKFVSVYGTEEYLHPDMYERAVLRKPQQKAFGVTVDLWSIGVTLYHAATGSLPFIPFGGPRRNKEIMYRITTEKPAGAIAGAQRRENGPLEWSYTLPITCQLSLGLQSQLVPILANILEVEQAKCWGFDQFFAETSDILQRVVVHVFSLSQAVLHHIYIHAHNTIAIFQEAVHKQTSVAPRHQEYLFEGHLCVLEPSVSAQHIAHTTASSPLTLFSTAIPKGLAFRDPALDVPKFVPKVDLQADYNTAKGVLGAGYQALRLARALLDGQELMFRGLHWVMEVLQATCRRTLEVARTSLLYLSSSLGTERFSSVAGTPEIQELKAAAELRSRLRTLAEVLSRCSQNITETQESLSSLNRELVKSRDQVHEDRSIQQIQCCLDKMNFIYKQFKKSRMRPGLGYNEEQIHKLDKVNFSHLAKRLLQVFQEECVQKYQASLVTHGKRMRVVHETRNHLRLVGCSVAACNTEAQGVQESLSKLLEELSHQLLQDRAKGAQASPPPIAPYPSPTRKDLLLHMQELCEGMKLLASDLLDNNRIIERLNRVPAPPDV
From the text: as §1

[6] = target: CK1 delta (Homo sapiens, UniProt P48730)
From the text: as §1

[7] = target: EPH-A2 (Homo sapiens, UniProt P29317)
From the text: as §1

[8] = target: TESK1 (Homo sapiens, UniProt Q15569)
From the text: as §1

[9] = target: MLK3 (Homo sapiens, UniProt Q16584)
From the text: as §1

[10] = target: MKK1 (Homo sapiens, UniProt Q02750)
From the text: as §1

[11] = target: JAK2 (Homo sapiens, UniProt O60674)
From the text: as §1

[12] = target: PKC gamma (Homo sapiens, UniProt P05129)
From the text: as §1

[13] = target: MAP4K5 (Homo sapiens, UniProt Q9Y4K4)
From the text: as §1

[14] = target: ERK5 (Homo sapiens, UniProt Q13164)
From the text: as §1

[15] = target: HIPK3 (Homo sapiens, UniProt Q9H422)
From the text: as §1

JAK2, sequence (O60674 whole entry): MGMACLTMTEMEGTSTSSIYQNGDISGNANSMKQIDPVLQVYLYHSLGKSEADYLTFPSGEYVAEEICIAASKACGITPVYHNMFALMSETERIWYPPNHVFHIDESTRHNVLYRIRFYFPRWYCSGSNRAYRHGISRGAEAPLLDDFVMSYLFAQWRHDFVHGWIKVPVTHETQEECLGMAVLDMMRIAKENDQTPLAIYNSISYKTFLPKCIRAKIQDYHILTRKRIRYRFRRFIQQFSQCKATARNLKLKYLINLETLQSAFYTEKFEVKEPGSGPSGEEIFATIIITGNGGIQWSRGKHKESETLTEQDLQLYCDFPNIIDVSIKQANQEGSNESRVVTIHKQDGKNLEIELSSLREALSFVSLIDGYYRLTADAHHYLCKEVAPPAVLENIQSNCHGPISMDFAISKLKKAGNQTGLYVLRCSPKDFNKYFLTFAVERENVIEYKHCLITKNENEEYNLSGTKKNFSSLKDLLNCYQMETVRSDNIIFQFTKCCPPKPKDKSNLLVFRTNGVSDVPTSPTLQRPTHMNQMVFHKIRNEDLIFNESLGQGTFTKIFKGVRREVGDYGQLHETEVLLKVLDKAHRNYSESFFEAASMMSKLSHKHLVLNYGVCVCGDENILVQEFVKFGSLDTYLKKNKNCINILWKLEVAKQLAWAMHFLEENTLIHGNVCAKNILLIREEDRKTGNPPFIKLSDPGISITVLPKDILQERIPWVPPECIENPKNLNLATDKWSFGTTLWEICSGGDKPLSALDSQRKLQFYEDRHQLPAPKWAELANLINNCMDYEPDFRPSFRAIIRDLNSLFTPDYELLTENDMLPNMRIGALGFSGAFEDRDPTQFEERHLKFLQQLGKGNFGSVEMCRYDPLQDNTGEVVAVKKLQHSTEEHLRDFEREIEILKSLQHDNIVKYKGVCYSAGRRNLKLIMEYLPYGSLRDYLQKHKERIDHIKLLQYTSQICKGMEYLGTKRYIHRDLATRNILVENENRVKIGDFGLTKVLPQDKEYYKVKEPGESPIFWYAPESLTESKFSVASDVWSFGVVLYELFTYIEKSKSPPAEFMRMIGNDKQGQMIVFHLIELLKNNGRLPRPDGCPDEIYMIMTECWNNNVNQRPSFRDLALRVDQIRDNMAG
PAK4, sequence (O96013 whole entry): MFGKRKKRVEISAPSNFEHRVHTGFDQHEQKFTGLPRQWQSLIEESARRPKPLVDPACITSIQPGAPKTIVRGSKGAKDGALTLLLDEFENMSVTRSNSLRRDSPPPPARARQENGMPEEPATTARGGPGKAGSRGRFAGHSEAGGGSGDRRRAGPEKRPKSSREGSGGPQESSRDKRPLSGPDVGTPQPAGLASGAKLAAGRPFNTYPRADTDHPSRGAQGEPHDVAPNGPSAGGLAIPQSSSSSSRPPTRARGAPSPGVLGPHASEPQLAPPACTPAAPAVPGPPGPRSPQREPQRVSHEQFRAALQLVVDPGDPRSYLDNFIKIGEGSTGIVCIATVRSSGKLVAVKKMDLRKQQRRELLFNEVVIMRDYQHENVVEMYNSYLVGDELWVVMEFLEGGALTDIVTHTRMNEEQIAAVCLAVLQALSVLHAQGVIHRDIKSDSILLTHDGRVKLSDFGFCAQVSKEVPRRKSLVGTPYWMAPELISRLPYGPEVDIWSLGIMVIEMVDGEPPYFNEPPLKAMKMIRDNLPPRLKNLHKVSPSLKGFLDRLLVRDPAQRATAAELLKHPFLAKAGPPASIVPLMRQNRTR
HIPK3, sequence (Q9H422 whole entry): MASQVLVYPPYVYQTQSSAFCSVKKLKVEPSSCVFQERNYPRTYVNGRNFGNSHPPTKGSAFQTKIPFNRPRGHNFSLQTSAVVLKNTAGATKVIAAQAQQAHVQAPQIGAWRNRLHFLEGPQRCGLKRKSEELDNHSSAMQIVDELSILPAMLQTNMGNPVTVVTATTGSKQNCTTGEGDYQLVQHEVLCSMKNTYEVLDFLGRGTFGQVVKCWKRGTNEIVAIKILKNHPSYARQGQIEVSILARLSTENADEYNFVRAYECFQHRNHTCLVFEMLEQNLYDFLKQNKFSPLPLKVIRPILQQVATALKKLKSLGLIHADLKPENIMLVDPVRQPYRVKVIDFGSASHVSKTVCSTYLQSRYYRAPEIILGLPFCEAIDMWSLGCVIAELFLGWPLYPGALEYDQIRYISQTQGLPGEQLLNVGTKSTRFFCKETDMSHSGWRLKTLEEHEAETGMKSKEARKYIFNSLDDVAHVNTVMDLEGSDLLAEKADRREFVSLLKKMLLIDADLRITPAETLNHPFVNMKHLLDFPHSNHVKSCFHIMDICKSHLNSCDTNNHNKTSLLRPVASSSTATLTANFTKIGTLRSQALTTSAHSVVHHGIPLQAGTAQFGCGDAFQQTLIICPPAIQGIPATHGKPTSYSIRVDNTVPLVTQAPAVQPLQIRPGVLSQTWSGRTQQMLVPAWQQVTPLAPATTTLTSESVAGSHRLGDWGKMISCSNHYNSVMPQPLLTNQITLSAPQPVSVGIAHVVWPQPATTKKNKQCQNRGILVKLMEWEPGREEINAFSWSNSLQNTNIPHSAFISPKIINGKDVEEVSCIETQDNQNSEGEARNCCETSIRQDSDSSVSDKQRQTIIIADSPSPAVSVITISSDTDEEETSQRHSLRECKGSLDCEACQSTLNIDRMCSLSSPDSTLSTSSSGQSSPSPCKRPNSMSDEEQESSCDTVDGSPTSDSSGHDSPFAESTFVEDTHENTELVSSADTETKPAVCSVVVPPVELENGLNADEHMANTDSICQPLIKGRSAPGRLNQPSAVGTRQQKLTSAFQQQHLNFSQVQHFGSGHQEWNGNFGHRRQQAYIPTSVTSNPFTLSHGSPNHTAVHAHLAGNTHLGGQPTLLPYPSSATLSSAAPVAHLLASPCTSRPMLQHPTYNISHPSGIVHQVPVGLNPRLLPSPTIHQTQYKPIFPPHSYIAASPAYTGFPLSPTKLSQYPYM
MAP4K5, sequence (Q9Y4K4 whole entry): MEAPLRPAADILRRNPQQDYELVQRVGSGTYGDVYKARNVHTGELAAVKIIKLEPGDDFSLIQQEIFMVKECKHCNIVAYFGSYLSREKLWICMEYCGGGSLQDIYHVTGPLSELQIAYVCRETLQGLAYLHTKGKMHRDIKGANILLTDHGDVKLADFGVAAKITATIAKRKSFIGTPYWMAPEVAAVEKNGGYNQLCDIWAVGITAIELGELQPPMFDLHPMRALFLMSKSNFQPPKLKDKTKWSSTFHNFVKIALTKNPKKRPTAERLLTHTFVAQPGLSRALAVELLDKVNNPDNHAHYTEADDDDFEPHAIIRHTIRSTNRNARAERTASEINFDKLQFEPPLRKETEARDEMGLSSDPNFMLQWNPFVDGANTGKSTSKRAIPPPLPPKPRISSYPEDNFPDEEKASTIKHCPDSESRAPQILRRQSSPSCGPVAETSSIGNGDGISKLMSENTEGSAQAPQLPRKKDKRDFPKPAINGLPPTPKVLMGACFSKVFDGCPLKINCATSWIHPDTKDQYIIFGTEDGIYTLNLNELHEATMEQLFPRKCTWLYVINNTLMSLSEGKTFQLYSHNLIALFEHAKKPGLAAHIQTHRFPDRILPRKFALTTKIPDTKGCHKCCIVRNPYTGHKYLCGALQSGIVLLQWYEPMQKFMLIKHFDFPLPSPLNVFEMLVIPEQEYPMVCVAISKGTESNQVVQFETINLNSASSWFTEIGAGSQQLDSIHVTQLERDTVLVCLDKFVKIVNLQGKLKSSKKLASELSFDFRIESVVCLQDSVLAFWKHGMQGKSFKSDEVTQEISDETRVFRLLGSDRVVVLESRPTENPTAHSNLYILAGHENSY
CK1 delta, sequence (P48730 whole entry): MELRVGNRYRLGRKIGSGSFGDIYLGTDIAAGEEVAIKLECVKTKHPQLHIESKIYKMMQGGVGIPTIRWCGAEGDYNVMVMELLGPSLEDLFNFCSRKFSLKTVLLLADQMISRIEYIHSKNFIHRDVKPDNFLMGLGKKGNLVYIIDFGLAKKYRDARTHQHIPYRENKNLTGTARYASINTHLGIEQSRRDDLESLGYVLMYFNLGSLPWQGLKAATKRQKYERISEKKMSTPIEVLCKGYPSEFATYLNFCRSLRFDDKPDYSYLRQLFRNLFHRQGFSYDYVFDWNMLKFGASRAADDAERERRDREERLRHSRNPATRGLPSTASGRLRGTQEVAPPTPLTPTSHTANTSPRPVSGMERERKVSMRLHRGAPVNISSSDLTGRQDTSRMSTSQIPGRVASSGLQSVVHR
ERK5, sequence (Q13164 whole entry): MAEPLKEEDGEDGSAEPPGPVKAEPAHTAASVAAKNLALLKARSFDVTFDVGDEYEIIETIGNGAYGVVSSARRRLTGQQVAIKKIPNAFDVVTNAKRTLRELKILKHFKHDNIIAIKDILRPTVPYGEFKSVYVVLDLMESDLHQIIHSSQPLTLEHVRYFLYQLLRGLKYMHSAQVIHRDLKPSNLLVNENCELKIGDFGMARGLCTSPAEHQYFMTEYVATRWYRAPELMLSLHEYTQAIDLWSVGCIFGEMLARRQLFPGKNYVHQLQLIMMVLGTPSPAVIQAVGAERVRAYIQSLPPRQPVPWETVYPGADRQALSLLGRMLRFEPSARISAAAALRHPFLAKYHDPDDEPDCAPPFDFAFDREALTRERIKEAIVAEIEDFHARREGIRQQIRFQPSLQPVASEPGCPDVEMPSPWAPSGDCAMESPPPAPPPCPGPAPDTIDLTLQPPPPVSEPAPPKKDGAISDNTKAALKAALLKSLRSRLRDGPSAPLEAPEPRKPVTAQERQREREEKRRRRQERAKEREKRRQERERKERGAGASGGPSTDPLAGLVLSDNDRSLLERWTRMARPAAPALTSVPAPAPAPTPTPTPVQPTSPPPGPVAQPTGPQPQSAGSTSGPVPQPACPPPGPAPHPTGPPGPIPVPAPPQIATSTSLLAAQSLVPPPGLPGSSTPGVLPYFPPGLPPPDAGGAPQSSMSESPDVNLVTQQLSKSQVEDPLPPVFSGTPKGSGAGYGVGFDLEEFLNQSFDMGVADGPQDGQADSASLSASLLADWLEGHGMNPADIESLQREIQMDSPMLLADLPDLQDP

Compound: COc1ccc(Cl)c(S(=O)(=O)Nc2ccc(-c3nc(OC[C@H]4CNCCO4)c4c(C)n[nH]c4n3)cc2)c1 [290-R, reference compound]
- remaining activity at 1 µM [1]: 85%
- remaining activity at 1 µM [2]: 104%
- remaining activity at 1 µM [3]: 91%
- remaining activity at 1 µM [4]: 117%
- remaining activity at 1 µM [5]: 34%
- remaining activity at 1 µM [6]: 65%
- remaining activity at 1 µM [7]: 109%
- remaining activity at 1 µM [8]: 77%
- remaining activity at 1 µM [9]: 10%
- remaining activity at 1 µM [10]: 66%
- remaining activity at 1 µM [11]: 112%
- remaining activity at 1 µM [12]: 101%
- remaining activity at 1 µM [13]: 19%
- remaining activity at 1 µM [14]: 84%
- remaining activity at 1 µM [15]: 109%

Compound: Cc1ccc(F)c(S(=O)(=O)Nc2ccc(-c3nc(OC[C@H]4CNCCO4)c4cn[nH]c4n3)cc2)c1 [308-R, reference compound]
- remaining activity at 1 µM [1]: 106%
- remaining activity at 1 µM [2]: 71%
- remaining activity at 1 µM [3]: 102%
- remaining activity at 1 µM [4]: 96%
- remaining activity at 1 µM [5]: 26%
- remaining activity at 1 µM [6]: 121%
- remaining activity at 1 µM [7]: 113%
- remaining activity at 1 µM [8]: 69%
- remaining activity at 1 µM [9]: 24%
- remaining activity at 1 µM [10]: 62%
- remaining activity at 1 µM [11]: 94%
- remaining activity at 1 µM [12]: 90%
- remaining activity at 1 µM [13]: 63%
- remaining activity at 1 µM [14]: 73%
- remaining activity at 1 µM [15]: 44%

Compound: Cc1ccc(F)c(S(=O)(=O)Nc2ccc(-c3nc(OC[C@H]4CN(CCCCCCOCCOCCOCC(=O)N[C@H](C(=O)N5C[C@H](O)C[C@H]5C(=O)NCc5ccc(-c6scnc6C)cc5)C(C)(C)C)CCO4)c4cn[nH]c4n3)cc2)c1 [SGK3-PROTAC1]
- remaining activity at 1 µM ([1]; 1 µM): 108%
- remaining activity at 1 µM ([2]; 1 µM): 112%
- remaining activity at 1 µM ([3]; 1 µM): 81%
- remaining activity at 1 µM ([4]; 1 µM): 100%
- remaining activity at 1 µM ([5]; 1 µM): 108%
- remaining activity at 1 µM ([6]; 1 µM): 95%
- remaining activity at 1 µM ([7]; 1 µM): 94%
- remaining activity at 1 µM ([8]; 1 µM): 122%
- remaining activity at 1 µM ([9]; 1 µM): 71%
- remaining activity at 1 µM ([10]; 1 µM): 106%
- remaining activity at 1 µM ([11]; 1 µM): 95%
- remaining activity at 1 µM ([12]; 1 µM): 103%
- remaining activity at 1 µM ([13]; 1 µM): 99%
- remaining activity at 1 µM ([14]; 1 µM): 102%
- remaining activity at 1 µM ([15]; 1 µM): 111%

Compound: Cc1ccc(F)c(S(=O)(=O)Nc2ccc(-c3nc(OC[C@H]4CN(CCCCCCOCCOCCOCC(=O)N[C@H](C(=O)N5C[C@@H](O)C[C@H]5C(=O)NCc5ccc(-c6scnc6C)cc5)C(C)(C)C)CCO4)c4cn[nH]c4n3)cc2)c1 [cisSGK3-PROTAC1]
- remaining activity at 1 µM ([1]; 1 µM): 111%
- remaining activity at 1 µM ([2]; 1 µM): 102%
- remaining activity at 1 µM ([3]; 1 µM): 113%
- remaining activity at 1 µM ([4]; 1 µM): 108%
- remaining activity at 1 µM ([5]; 1 µM): 99%
- remaining activity at 1 µM ([6]; 1 µM): 108%
- remaining activity at 1 µM ([7]; 1 µM): 104%
- remaining activity at 1 µM ([8]; 1 µM): 120%
- remaining activity at 1 µM ([9]; 1 µM): 76%
- remaining activity at 1 µM ([10]; 1 µM): 102%
- remaining activity at 1 µM ([11]; 1 µM): 94%
- remaining activity at 1 µM ([12]; 1 µM): 100%
- remaining activity at 1 µM ([13]; 1 µM): 101%
- remaining activity at 1 µM ([14]; 1 µM): 108%
- remaining activity at 1 µM ([15]; 1 µM): 105%
